d = 2'-deoxy (DNA); r = 2'-OH (RNA)
Assays:
[1] = tested on: A2780CP20 ovarian cancer cell line; assay: MTS proliferation assay: cisplatin sensitivity after siRNA pretreatment; format: cell-based; conditions: for fold change in cisplatin sensitivity: A2780CP20 cells, compared to siNEG
Protocol: Cell culture and RNA interference. Ovarian cancer cell lines were routinely maintained in medium supplemented with 10% fetal bovine serum and 2 mM L-glutamine. SKOV3 and OVCAR3 cell lines were maintained in RPMI-1640 medium, OVCA420 and OVCA432 were maintained in 105/199 medium and OVCA420 and CAOV3 cells were maintained in DMEM medium. For 3-(4,5-dimethylthiazol-2-yl)-5-(3-carboxymethoxyphenyl)-2-(4-sulfophenyl)-2H-tetrazolium (MTS) assays, transfections mediated by cationic lipid were performed in 96-well plates. Cells were seeded on a complex of the appropriate siRNA (QIAGEN® Inc., Germantown, Md.) and Oligofectamine (Invitrogen, Carlsbad, Calif.) in unsupplemented growth medium. Final amounts in each well were 50 nM siRNA, 0.5 ul Oligofectamine, and 3000 cells in 100 μL medium. The siRNA target sequences of the synthetic siRNAs were designed against the reference RNA sequence.
MTS proliferation assay. Cell line sensitivity to chemotherapeutic reagents such as cisplatin or taxol was determined by measuring formazan production from MTS (PROMEGA®, Madison, Wis.), with drug concentrations tested in octuplicates in each experiment. For example, serial dilutions of cisplatin or taxol were made shortly before addition to cells. At 48 hours after transfection and seeding, cells were washed by aspiration of the supernatant, and 150 uL of drug-containing medium is added. Another 48 hours later, the drug solution was aspirated and 120 uL MTS-containing medium is added according to the manufacturer's protocol (PROMEGA® #G3580, Madison, Wis.). The plates were incubated at 37° C. and read at 490 nm after 3 hours. Using GraphPad PRISM® 4.02 (GraphPad Software Inc., San Diego, Calif.), the drug concentrations were log-transformed and nonlinear regression is performed on the A490 data using the sigmoidal dose response model with variable slope. Mean EC50 values, standard errors, and 95% confidence intervals were determined from the logistic fits.
(§1) As described above in Example 1, A2780CP20 ovarian cancer cell lines were transfected with siPOLH-2 or siPOLH-5, treated with cisplatin starting 48 hours later, and assayed with MTS 48 hours thereafter. Viable cell number data was acquired by reading the fluorescence emissions at 490 nm. Using GraphPad Prism 4.02, cisplatin drug concentrations were log-transformed and nonlinear regression performed on the A490 data using the sigmoidal dose response model with variable slope to generate the IC50 curves. IC50 values and 95% confidence intervals were determined from the logistic fits.
as §1, with “A2780CP20” for “As described above in Example 1, A2780CP20”, “siREV3L-1” for “siPOLH-2”, “siREV3L-2,” for “siPOLH-5,”, “thereafter (as described above, including Example 1).” for “thereafter.”, “fits. […] Further, a 2.1 fold change in cisplatin sensitivity was detected for siREV3L-1 pretreatment and a 2.9 fold change in such sensitivity for siREV3L-2 pretreatment.” for “fits.”
as §1, with “FIG. 5 illustrates the effect of pretreatment with RNAi against POLH and REV3L on cisplatin resistance.” for “As described above in Example 1,”, “cotransfected” for “transfected”, “siPOLH-5 and siREV3L-2,” for “siPOLH-2 or siPOLH-5,”

POLH = assay: Western blot analysis for POLH after POLH siRNA treatment; format: cell-based; conditions: lysates at 24, 48, 72 and 96 hours; 5 ul of 1 ug/ul POLH-siRNA
Protocol: Cell lysates were collected and examined by Western blot analysis for POLH. After treating cells with 5 ul of 1 ug/ul POLH-siRNA, lysates were collected at 24, 48, 72 and 96 hours and then analyzed for down-regulation of POLH.

Substance | cell sensitivity to cisplatin when compared to cells treated with siNEG [1] | fold change in cisplatin sensitivity [1] [fold] | POLH expression (down-regulation of POLH) (POLH)
siPOLH-2: synthetic siRNA against POLH (exon 10), Qiagen cat #SI00089012, SEQ ID NO:8 sense and SEQ ID NO:9 antisense (sense CCAUUUAGGUGCUGAGUUATT; antisense UAACUCAGCACCUAAAUGGAG; sugars from the 5' end r19 d2, backbone not given here) | significantly increased | 1.6 | –
siPOLH-5: synthetic siRNA against POLH (exon 11), Qiagen cat #SI02663619, SEQ ID NO:11 sense and SEQ ID NO:12 antisense (sense GGUUGUGAGCAUUCGUGUATT; antisense UACACGAAUGCUCACAACCTG; sugars from the 5' end r19 d2, backbone not given here) | significantly increased | 1.9 | inhibit POLH RNA expression
siREV3L-1: synthetic siRNA against REV3L (exon 18), Qiagen cat #SI00045626, SEQ ID NO:2 sense and SEQ ID NO:3 antisense (sense GGAUGUAGUCAAACUGCAATT; antisense UUGCAGUUUGACUACAUCCAG; sugars from the 5' end r19 d2, backbone not given here) | significantly increased | 2.1 | –
siREV3L-2: synthetic siRNA against REV3L (exon 17), Qiagen cat #SI00045633, SEQ ID NO:5 sense and SEQ ID NO:6 antisense (sense CACUGGAAUUAAUGCACAATT; antisense UUGUGCAUUAAUUCCAGUGTG; sugars from the 5' end r19 d2, backbone not given here) | significantly increased | 2.9 | –

Source: US20110178154A1, “GENE EXPRESSION PROFILE THAT PREDICTS OVARIAN CANCER SUBJECT RESPONSE TO CHEMOTHERAPY” (priority 2007, published 2011)
